Values of other authors as cited in article PMC9046186, “A distinctive ligand recognition mechanism by the human vasoactive intestinal polypeptide receptor 2” (Nature Communications, 2022).

Assays:
[1] = system: VIP2R; details: introduction, Fig. 1a, b; no reference given
[2] = system: VIP1R; details: introduction, Fig. 1a, b; no reference given

Substance | affinity at VIP2R [1] | affinity at VIP1R [2]
Vasoactive intestinal peptide [VIP] | comparable affinity | comparable affinity
pituitary adenylate cyclase-activating polypeptide [PACAP38] | comparable affinity | comparable affinity
